PubChem BioAssay AID743394 (Broad Institute, 2014)
Calls of active or inactive are those of the source.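 Rule for the calls: active = 40% activation versus positive control reached by fitted dose-response curve at or below highest valid tested dose; inconclusive = poor fit quality, or flat fit with activation between 30% and 70%; inactive = the rest.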

assay: Xi-linked GFP reactivating small molecules – imaging, 68-5-11 mouse fibroblasts, cherry-pick, dose response (AID 743394); settings: 68-5-11 mouse fibroblast XiGFP reporter, % GFP-positive imaging, 3 d; at 19.5 µM (top of the series);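 note: sensitizer 5-aza-dC present in the wells at 0.5 mM final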

| SMILES | activation |
| --- | --- |
| Cc1cc(=O)oc2cc3c(cc12)CCCN3 | 0.76% (inactive) |
| O=[N+]([O-])c1ccc(O)c([N+](=O)[O-])c1 | -0.014% (inactive) |

same assay, conditions: 68-5-11 mouse fibroblast XiGFP reporter, % GFP-positive imaging, 3 d; at 19.5 µM (top of the series); cells co-treated with 5-aza-dC sensitizer; scaled: neutral wells 0, ellipticine wells 100

| SMILES | activation |
| --- | --- |
| Cc1nn(-c2ccccc2)c2ncc(C(=O)c3cc(Cl)ccc3O)cc12 | 0.1% (inactive) |
| C[C@H]1CN([C@@H](C)CO)S(=O)(=O)c2ccc(Br)cc2O[C@H]1CN(C)C(=O)c1cccnc1 | -0.033% (inactive) |
| CC(=O)c1cccc(-c2ccc3c(c2)C(C)(Cc2ccc(S(C)(=O)=O)cc2)C(=O)N3)c1 (configuration not stated) | -0.032% (inactive) |
| CCn1nc(C)cc1-c1nnc(Sc2ncc([N+](=O)[O-])s2)n1C | -0.032% (inactive) |
| Cc1ccc(S(=O)(=O)N(C)c2ccc(C)c([N+](=O)[O-])c2)cc1 | 0.488% (inactive) |
| CCN(CC)CCCN=Cc1c(O)n(-c2cccc(C)c2)c(=O)c2ccccc12 | -0.005% (inactive) |
| COc1ccc(Cc2c(O)nc(SCC(=O)NC34CC5CC(CC(C5)C3)C4)[nH]c2=O)cc1 | 0.41% (inactive) |
| O=C(Nc1ccccc1)N1C[C@@H]2[C@H](c3ccccc31)[C@H](CO)N2C(=O)c1ccccc1F | 0.2% (inactive) |
| NNC(=O)c1sc(-c2ccc(Cl)cc2)cc1N | 2.31% (inactive) |
| CSc1ccc(CN2C(=O)NC3(CCCCCCC3)C2=O)cc1 | 0.616% (inactive) |
| C[C@@H]1CN([C@H](C)CO)C(=O)c2cc(NS(=O)(=O)c3ccc(F)cc3)ccc2O[C@@H](C)CCCCO[C@@H]1CN(C)Cc1ccc2c(c1)OCO2 | 9.16% (inactive) |
| CC(=O)C1=NN(c2ccc(Cl)cc2)C(c2ccc3c(c2)OCO3)N(C(C)=O)N1C (configuration not stated) | -0.032% (inactive) |
| c1ccc(CCNc2nc(-c3ccccn3)nc3ccccc23)cc1 | -0.035% (inactive) |
| ClC1CCCCC1n1nnc2ccccc21 (configuration not stated) | 0.006% (inactive) |
| Cc1c(CN2CCCC(C(=O)c3cccc(OC(C)C)c3)C2)c(=O)n(-c2ccccc2)n1C (configuration not stated) | -0.016% (inactive) |
| C[C@H]1CN([C@@H](C)CO)C(=O)c2cc(NC(=O)CCCCCC(=O)Nc3ccccc3N)ccc2O[C@H]1CN(C)C(=O)Nc1ccccc1 | 0.04% (inactive) |
| O=[N+]([O-])c1ccccc1-c1ccc(C(=S)N2CCN(c3ccccc3)CC2)o1 | 0.417% (inactive) |
| COc1ccc(NC(=O)C(=O)NCCC2CCCCN2S(=O)(=O)c2cccs2)cc1 (configuration not stated) | 6.11% (inactive) |
| C=CCN(CC(O)c1cccc([N+](=O)[O-])c1)C(C)CCc1ccccc1 (configuration not stated) | -0.039% (inactive) |
| Cc1noc(C)c1NC(=O)N[C@H]1CC[C@H](CC(=O)N2CCN(C)CC2)O[C@H]1CO | 0.116% (inactive) |
| C[C@H]1CN([C@@H](C)CO)C(=O)c2ccccc2-c2ccccc2CO[C@H]1CN(C)C(=O)[C@@H](Cc1ccccc1)N(C)C | 0% (inactive) |

| SMILES | activation |
| --- | --- |
| O=C1C=CC(=O)C(CNc2ccc(C(=O)OCc3ccccc3)cc2)=C1 | -0.05% (inactive) |
| CC(=O)NC(c1ccc(Cl)cc1)c1c(O)ccc2ccc(O)cc12 (configuration not stated) | 0.013% (inactive) |
| COc1ccc(/C=c2/sc3nc(-c4ccccc4)c(-c4ccccc4)n3c2=O)cc1 | -0.002% (inactive) |
| CCSc1nnc(NC(=O)c2cc(OC)c(OC)c(OC)c2)s1 | 0.316% (inactive) |
| COc1cc(CN2CCC(C(=O)NCC(C)(C)CN(C)C)CC2)ccc1OCc1ccccc1 | -0.029% (inactive) |
| COc1ccc(C2=C(c3ccccc3)OC(OC)c3cc(F)ccc32)cn1 (configuration not stated) | 0.027% (inactive) |
| O=C(O)c1cccnc1C(=O)N1CCc2c([nH]c3ccccc23)C1C(F)(F)F (configuration not stated) | 0.006% (inactive) |
| Cn1c(NC(=O)c2ccc(F)cc2)c(-c2ccccn2)c(=O)c2ccccc21 | 0.155% (inactive) |
| CO[C@H]1CN(C)C(=O)c2ccc(NC(=O)C3CCCCC3)cc2OC[C@H](C)NC[C@@H]1C | 0.017% (inactive) |
| COc1cc(/C=C2\SC(=S)N(N3CCOCC3)C2=O)cc(OC)c1OC | 0.067% (inactive) |
| O=C(N/N=C/c1ccc(O)c2ncccc12)c1cccc(Br)c1 | -0.037% (inactive) |
| CC(=O)OCCNc1cc(Sc2nc3ccccc3[nH]2)c2nonc2c1[N+](=O)[O-] | -0.034% (inactive) |
| CC(=Nc1ccc(Cl)cc1N)c1c(O)cc(C)oc1=O | -0.044% (inactive) |
| C=CCn1c(SCC(=O)N(CC)C2CCS(=O)(=O)C2)nc2sc3c(c2c1=O)CCC3 (configuration not stated) | -0.061% (inactive) |
| CCCOc1ccc(Oc2nc(-c3ccncc3)nc3ccccc23)cc1 | 0.003% (inactive) |
| CCOc1ccc(NC(=S)NC(C)c2cccs2)cc1 (configuration not stated) | 0.358% (inactive) |
| Cc1oc2ccc(NS(=O)(=O)c3cccc4cccnc34)cc2c1C(=O)OC(C)C | 0.423% (inactive) |
| CN(C)C=NC(=O)c1cc(C(=O)c2ccc(Cl)cc2Cl)c[nH]1 | -0.032% (inactive) |
| O=C(COC(=O)c1ccc(NS(=O)(=O)c2cccs2)cc1O)NC1CCCCC1 | 0.098% (inactive) |
| Nc1[nH]c(=O)nc(Nc2ccccc2)c1N=O | -0.037% (inactive) |
| Cc1ccccc1NC(=O)c1cn2c(nc3ccccc32)c(C#N)c1C | 3.72% (inactive) |

| SMILES | activation |
| --- | --- |
| CSc1ccc(CNCC2CCCO2)cc1 (configuration not stated) | 0.842% (inactive) |
| O=c1[nH]cnc2c1ncn2[C@H]1CC[C@@H](CO)O1 | -0.002% (inactive) |
| Cn1c(=O)[nH]c(=O)c2c1nc(SCCN1CCOCC1)n2CCCc1ccccc1 | -0.047% (inactive) |
| COC(=O)c1ccc(-n2c(C)cc(C(=O)COC(=O)C3=COCCO3)c2C)cc1 | -0.033% (inactive) |
| C(CCCN1CCCCC1)CCN1CCCCC1 | 0.047% (inactive) |
| Cc1ccnc(NS(=O)(=O)c2ccc3c(c2)CCO3)c1 | 0.025% (inactive) |
| O=C1C2C3C=CC(CNS(=O)(=O)c4ccccc4[N+](=O)[O-])(O3)C2C(=O)N1c1ccccc1 (configuration not stated) | 0.059% (inactive) |
| C[C@@H]1CN([C@H](C)CO)C(=O)c2cc(NC(=O)Nc3ccc4c(c3)OCO4)ccc2O[C@@H](C)CCCCO[C@@H]1CN(C)C(=O)Cc1ccccc1 | 0.577% (inactive) |
| CC(C)(C)N(Cc1ccccc1)C(=O)COC(=O)c1ccc(N2CCCC2=O)cc1 | 0.165% (inactive) |
| Cc1ccc(-c2csc(NC(=O)c3cccc([N+](=O)[O-])c3C(=O)O)n2)cc1 | -0.047% (inactive) |
| CN(C)S(=O)(=O)c1cccc(C(=O)NCC2(N3CCOCC3)CCCCC2)c1 | -0.002% (inactive) |
| Cc1ccc(S(=O)(=O)c2ccc([N+](=O)[O-])cn2)cc1 | -0.05% (inactive) |
| C[C@H](NC(=O)C[C@@H]1CC[C@H](NC(=O)Cc2ccccn2)[C@@H](CO)O1)c1ccccc1 | 0.019% (inactive) |
| CCCC(=O)OCCNc1cc(Sc2nccn2C)c2nonc2c1[N+](=O)[O-] | -0.034% (inactive) |
| CCc1ccc(NS(=O)(=O)c2cccc3nonc23)cc1 | -0.121% (inactive) |
| CC(C)(C)C1CCNC(=O)CC1 (configuration not stated) | 0.008% (inactive) |
| COc1cc(NC(C)CCc2ccccc2)cc(OC)c1OC (configuration not stated) | -0.035% (inactive) |
| C[C@@H]1COc2cccc(NCCO)c2S(=O)(=O)N1 | 0.028% (inactive) |
| C/C(=N\NC(=O)c1ccccc1Cl)c1ccccn1 | 3.5% (inactive) |
| COc1ccc(N2CCN(C(=O)c3cc4c(s3)-c3ccccc3OC4)CC2)cc1 | 0.457% (inactive) |
| COc1ccc(CN(C)Cc2nc(Cc3ccccc3Cl)no2)cc1OC | -0.032% (inactive) |

| SMILES | activation |
| --- | --- |
| COc1ccc(NC(=O)COc2ccc(C)c(C)c2)cc1S(=O)(=O)N1CCCCC1 | 0.164% (inactive) |
| O=C(Nc1ccc(F)cc1)N1CC(=O)N2[C@H](CO)[C@H](c3ccc(C#Cc4ccc(F)cc4)cc3)[C@@H]2C1 | -0.031% (inactive) |
| O=C1Nc2ccccc2/C1=C/c1ccccc1Cl | -0.034% (inactive) |
| COc1ccc(-c2noc(-c3cccs3)n2)cc1OC | 0.151% (inactive) |
| CCOC(=O)C1(Cc2ccccc2C)CCCN(C(=O)CSC)C1 (configuration not stated) | -0.053% (inactive) |
| Cc1cc(C(=O)NCc2cc(F)cc3c2OCOC3)nn1C | -0.037% (inactive) |
| CCCN(C)C[C@@H]1OCc2cnnn2CCCC(=O)N([C@H](C)CO)C[C@H]1C | 1.19% (inactive) |
| O=c1c2ccccc2nnn1Cc1ccc2ccccc2c1 | -0.047% (inactive) |
| Nc1ccccc1Sc1ccc(C(F)(F)F)cc1[N+](=O)[O-] | 0.953% (inactive) |
| Nc1ccccc1C#CC(=O)c1ccccc1 | -0.07% (inactive) |
| CC(=O)Nc1ccc(S(=O)(=O)N(C)c2ccc(OCC(=O)NCCc3ccccc3F)cc2)cc1 | -0.07% (inactive) |
| O=C1c2ccc3c4c(ccc(c24)C(=O)N1c1cccc(O)c1)C(=O)N(c1cccc(O)c1)C3=O | -0.037% (inactive) |
| C/C(CC(=O)Nc1ccc(C)c(Cl)c1)=N\NC(=O)Cc1ccccc1 | -0.06% (inactive) |
| C[C@H](CO)N1C[C@H](C)[C@H](CN(C)C(=O)Nc2ccc(F)cc2)Oc2ncc(C#Cc3cccc(F)c3)cc2C1=O | -0.031% (inactive) |
| CCOC(=O)c1sc2nc(CSc3ccccc3)[nH]c(=O)c2c1C | 0.303% (inactive) |
| COc1ccc(S(=O)(=O)Nc2ccc3c(c2)C(=O)N([C@@H](C)CO)C[C@H](C)[C@H](CN(C)C(=O)CCCN(C)C)OCCCC[C@H](C)O3)cc1 | 0.053% (inactive) |
| COc1ccccc1N=Nc1c(C)[nH]n(-c2ccccc2)c1=O | -0.075% (inactive) |
| CC(C)CC(=O)Nc1c2c(nn1-c1ccc(F)cc1)CSC2 | 0.542% (inactive) |
| COC(=O)C(C(C)C)N1CCc2c(C)nc3c(C#N)cnn3c21 (configuration not stated) | 0.052% (inactive) |
| Cc1ccc(N2C(=O)C3C4C=CC(CNC(=S)N5CCN(c6ccccc6)CC5)(O4)C3C2=O)cc1 (configuration not stated) | -0.008% (inactive) |
| O=C(NCCOc1ccccc1)c1cc([N+](=O)[O-])ccc1N1CCOCC1 | 0.193% (inactive) |

same assay, conditions: 68-5-11 mouse fibroblast XiGFP reporter, % GFP-positive imaging, 3 d; at 21 µM (top of the series); cells co-treated with 5-aza-dC sensitizer; scaled: neutral wells 0, ellipticine wells 100

| SMILES | activation |
| --- | --- |
| Cc1ccc(-c2ccccc2[C@@H]2[C@H](C#N)N(S(C)(=O)=O)[C@H]2CO)cc1 | 0.241% (inactive) |
